Results taken from BindingDB's records for doi:10.7270/Q2T72HDT (Dupont Pharmaceuticals, 1995).

Key:
[1] = molecular target: T1, Sterol O-acyltransferase 1 (Mus musculus, UniProt Q61263); experiment: ChEBML_28026
T1 sequence (Q61263 whole entry): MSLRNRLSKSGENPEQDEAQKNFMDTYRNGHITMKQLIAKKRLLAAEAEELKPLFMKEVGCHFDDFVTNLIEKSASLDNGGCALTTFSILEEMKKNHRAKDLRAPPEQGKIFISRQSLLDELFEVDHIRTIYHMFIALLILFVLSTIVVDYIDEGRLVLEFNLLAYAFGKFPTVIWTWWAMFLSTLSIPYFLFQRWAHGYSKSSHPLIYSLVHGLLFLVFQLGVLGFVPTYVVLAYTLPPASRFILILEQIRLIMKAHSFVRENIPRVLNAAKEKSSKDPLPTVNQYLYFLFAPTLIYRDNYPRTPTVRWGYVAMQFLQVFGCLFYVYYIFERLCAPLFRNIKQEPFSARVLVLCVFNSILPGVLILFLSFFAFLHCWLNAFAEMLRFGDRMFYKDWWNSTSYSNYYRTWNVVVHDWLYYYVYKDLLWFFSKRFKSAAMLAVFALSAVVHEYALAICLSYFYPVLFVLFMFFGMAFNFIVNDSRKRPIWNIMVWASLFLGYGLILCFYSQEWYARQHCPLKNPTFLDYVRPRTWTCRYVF
Description: Inhibition of Acyl coenzyme A:cholesterol acyltransferase (ACAT) in J774 Macrophage cell culture

[2] = molecular target: T2, Sterol O-acyltransferase 1 (Rattus norvegicus, UniProt O70536); experiment: ChEBML_28360
T2 sequence (O70536 whole entry): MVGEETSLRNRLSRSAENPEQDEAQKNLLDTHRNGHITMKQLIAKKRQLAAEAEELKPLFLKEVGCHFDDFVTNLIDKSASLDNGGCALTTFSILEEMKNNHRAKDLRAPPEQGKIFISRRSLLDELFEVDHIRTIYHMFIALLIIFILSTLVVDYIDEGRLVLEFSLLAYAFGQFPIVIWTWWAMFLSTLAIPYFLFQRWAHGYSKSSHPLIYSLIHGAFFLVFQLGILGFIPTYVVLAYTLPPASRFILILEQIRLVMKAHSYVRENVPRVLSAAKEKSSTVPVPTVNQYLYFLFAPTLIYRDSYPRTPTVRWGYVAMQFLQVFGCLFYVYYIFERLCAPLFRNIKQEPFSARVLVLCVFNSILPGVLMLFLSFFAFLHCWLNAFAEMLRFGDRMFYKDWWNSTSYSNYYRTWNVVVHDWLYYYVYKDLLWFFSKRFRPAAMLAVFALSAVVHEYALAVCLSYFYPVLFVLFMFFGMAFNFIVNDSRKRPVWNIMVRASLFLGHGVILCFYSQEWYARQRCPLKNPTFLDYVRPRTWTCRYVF
Description: In vitro inhibition of Acyl coenzyme A:cholesterol acyltransferase (ACAT) in rat hepatic microsomes

Which IC50 [1] does the source give for `Cc1nc2ccccc2n1CCCSCCCSc1nc(-c2ccccc2)c(-c2ccccc2)[nH]1` here?
The IC50 was 7270 nM.

And the IC50 [2]?
The IC50 was 250 nM.

How did the IC50 [1] turn out when `COc1ccc(-c2nc(SCCCCCN(CCCCCSc3nc(-c4ccccc4)c(-c4ccccc4)[nH]3)C(=O)NC(C)C)[nH]c2-c2ccc(OC)cc2)cc1` was run?
Its IC50 is 100 nM.

And the IC50 [2]?
Its IC50 is 90 nM.

`CC(C)NC(=O)N(CCCCCSc1nc(-c2ccccc2)c(-c2ccccc2)[nH]1)CCc1ccccn1` was tested. Which IC50 [1] did it give?
Its IC50 is 3050 nM.

What about the IC50 [2] of the same compound?
Its IC50 is 190 nM.

For `COc1ccc(-c2nc(SCCOCCSc3nc(-c4ccccc4)c(-c4ccccc4)[nH]3)[nH]c2-c2ccc(OC)cc2)cc1`, which IC50 [1] is on record?
Its IC50 is 3870 nM.

Which results are given for `c1ccc(-c2nc(SCCCCCSCc3ccccn3)[nH]c2-c2ccccc2)cc1`?
IC50 [1]: 3930 nM; IC50 [2]: 310 nM

For `CN(C)c1ccc(-c2nc(SCCCCCN(CCCCCSc3nc(-c4ccccc4)c(-c4ccccc4)[nH]3)C(=O)Nc3ccc(F)cc3F)[nH]c2-c2ccc(N(C)C)cc2)cc1`, which IC50 [1] is on record?
Its IC50 is 450 nM.

What about the IC50 [2] of the same compound?
Its IC50 is 3 nM.

How did the IC50 [1] turn out when `COc1ccc(-c2nc(SCCCCCN(Cc3ccccn3)C(=O)Nc3ccc(F)cc3F)[nH]c2-c2ccc(OC)cc2)cc1` was run?
The IC50 was 190 nM.

Which IC50 [1] does the source give for `CC(C)NC(=O)N(CCCCCSc1nc(-c2ccccc2)c(-c2ccccc2)[nH]1)c1ccccn1` here?
The IC50 was 940 nM.

What about the IC50 [2] of the same compound?
The IC50 was 100 nM.

Which IC50 [1] does the source give for `CN(C)c1ccc(-c2nc(SCCOCCSc3nc(-c4ccc(N(C)C)cc4)c(-c4ccc(N(C)C)cc4)[nH]3)[nH]c2-c2ccc(N(C)C)cc2)cc1` here?
The IC50 was 370 nM.

What about the IC50 [2] of the same compound?
The IC50 was 134 nM.

What does the source list for `O=C(Nc1ccc(F)cc1F)N(CCCCCSc1nc(-c2ccccc2)c(-c2ccccc2)[nH]1)CCc1ccccn1`?
IC50 [1]: 2440 nM; IC50 [2]: 80 nM

What does the source list for `COc1ccc(-c2nc(SCCCCCN(CCc3ccccn3)C(=O)NC(C)C)[nH]c2-c2ccc(OC)cc2)cc1`?
IC50 [1]: 90 nM; IC50 [2]: 260 nM

How did the IC50 [1] turn out when `CC(C)NC(=O)N(CCCCCSc1nc(-c2ccccc2)c(-c2ccccc2)[nH]1)CCCCCSc1nc(-c2ccc(N(C)C)cc2)c(-c2ccc(N(C)C)cc2)[nH]1` was run?
The IC50 was 60 nM.

And the IC50 [2]?
The IC50 was 30 nM.

Which IC50 [1] does the source give for `c1ccc(-c2nc(SCCCSCCCSc3nc(-c4ccccc4)c(-c4ccccc4)[nH]3)[nH]c2-c2ccccc2)cc1` here?
The IC50 was 7960 nM.

For `CN(C)c1ccc(-c2nc(SCCOCCSc3[nH]cnc4ncnc3-4)[nH]c2-c2ccc(N(C)C)cc2)cc1`, which IC50 [1] is on record?
The IC50 was 2990 nM.

And the IC50 [2]?
Its IC50 is 2040 nM.

`COc1ccc(-c2nc(SCCCCCN(CCc3nn[nH]n3)C(=O)NC(C)C)[nH]c2-c2ccc(OC)cc2)cc1` was tested. Which IC50 [1] did it give?
Its IC50 is 5500 nM.

For `COc1ccc(-c2nc(SCCOCCn3c(C)nc4ccccc43)[nH]c2-c2ccc(OC)cc2)cc1`, which IC50 [1] is on record?
The IC50 was 3430 nM.

`COc1ccc(-c2nc(SCCCCCN(Cc3ccccn3)C(=O)NC(C)C)[nH]c2-c2ccc(OC)cc2)cc1` was tested. Which IC50 [1] did it give?
The IC50 was 60 nM.

And the IC50 [2]?
Its IC50 is 6230 nM.

`COc1ccc(-c2nc(SCCCCCN(CCCn3ccnc3)C(=O)NC(C)C)[nH]c2-c2ccc(OC)cc2)cc1` was tested. Which IC50 [1] did it give?
Its IC50 is 5500 nM.

With `c1ccc(-c2nc(SCCCCCOCCc3ccccn3)[nH]c2-c2ccccc2)cc1` as the compound, how does the IC50 [1] read?
The IC50 was 3920 nM.

How did the IC50 [1] turn out when `COc1ccc(-c2nc(SCCCCCN(CCc3ccccn3)C(=O)Nc3ccc(F)cc3F)[nH]c2-c2ccc(OC)cc2)cc1` was run?
The IC50 was 690 nM.

What about the IC50 [2] of the same compound?
The IC50 was 300 nM.

`c1ccc(-c2nc(SCCOCCSc3nc(-c4ccccc4)c(-c4ccccc4)[nH]3)[nH]c2-c2ccccc2)cc1` was tested. Which IC50 [1] did it give?
The IC50 was 6550 nM.

What about the IC50 [2] of the same compound?
The IC50 was 26 nM.

With `O=C(Nc1ccc(F)cc1F)N(CCCCCSc1nc(-c2ccccc2)c(-c2ccccc2)[nH]1)c1ccccn1` as the compound, how does the IC50 [1] read?
Its IC50 is 790 nM.

What about the IC50 [2] of the same compound?
The IC50 was 660 nM.

For `COc1ccc(-c2nc(SCCCCCN(CCCCCSc3nc(-c4ccc(OC)cc4)c(-c4ccc(OC)cc4)[nH]3)C(=O)NC(C)C)[nH]c2-c2ccc(OC)cc2)cc1`, which IC50 [1] is on record?
Its IC50 is 10 nM.

And the IC50 [2]?
The IC50 was 90 nM.
